Source: publication PMC11124413, “Synthesis, Antibacterial Effects, and Toxicity of Licochalcone C” (Pharmaceuticals, 2024)
Values after ≈ are worked out from the molar mass of the structure shown. Values joined by “and” are separate entries in the source; they are usually repeats but may differ in a detail not shown here. Identical values can stand only once. Positions of bridges follow the written chain, without caps; N, C: chain ends. Non-standard residues stand in square brackets, D forms with d. No end group written: not given here. Abu = CC[C@H](N)C(=O)O; Dhb = C/C=C(\N)C(=O)O; Dha = C=C(N)C(=O)O

Assays:
MRSA (ATCC BAA44) = experiment: MIC, broth microdilution with resazurin; format: cell-based; settings: Staphylococcus aureus (MRSA); mean of triplicates; read-out: MIC
MRSA planktonic cells = experiment: Checkerboard assay; format: cell-based, S. aureus
Method: The combinations of LCC with tetracycline and vancomycin were evaluated against MSSA and MRSA, respectively, using a microdilution broth checkerboard assay, according to White and collaborators, adapted with the standard procedure established by the CLSI [51, 54]. The fractional inhibitory concentration (FIC) of the combination between LCC and tetracycline or vancomycin was determined using Mueller–Hinton broth culture medium into 96-well plates, with a final inoculum suspension of 5.0 × 10^5 CFU/mL, incubated at 37 °C for 24 h. After incubation, an aqueous resazurin solution (0.02%) was added to the wells and the FIC values (ratio between the MIC of the drug in combination and the MIC of the drug alone) were determined for each drug (Equations (1) and (2)). The fractional inhibitory concentration index (FICI) was calculated using Equation (3). (1) FICLCC=MIC of drug A in combination/MIC of drug A alone (2) FICD=MIC of drug B in combination/MIC of drug B alone FIC Index (FICI) = FICLCC + FICD(3)
The combination was classified as synergistic (FICI ≤ 0.5), indifferent (0.5 < FICI < 4), and antagonistic (FICI ≥ 4). The assays were performed in triplicate in independent experiments.

MRSA biofilm = experiment: Antibiofilm assay (biofilm formation); format: cell-based, S. aureus; settings: MRSA biofilm formation
[1] = system: Staphylococcus aureus (ATCC 29213) membrane; experiment: Membrane disruption assay, fluorescence microscopy with SYTO9 and propidium iodide; settings: S. aureus; LCC at MIC 12.5 µg/mL, 15 min; nisin positive control
Method: Two fluorescent dyes propidium iodide (PI) and SYTO9 were added, which stain cells with disrupted membranes (in pink) and whole membranes (in blue).
The assay was performed using Staphylococcus aureus (ATCC 29213), an MSSA strain. Bacterial cells were cultivated in solid TSA broth (tryptone soya) at 36 °C and stirred at 200 rpm. […] Cells were stained with the Live/Dead BacLight Kit (Thermo-Scientific® L7012, Carlsbad, CA, USA), which is composed of two nucleic acid dyes: SYTO9, which stains all cells, and propidium iodide, which penetrates cells with damaged membranes [60]. The stained cells were immobilized on agarose-covered slides as described by Martins [61]. Untreated S. aureus cells with intact membranes were used as negative controls, and S. aureus cells exposed to nisin (Sigma-Aldrich® N5764, St. Louis, MO, USA) were used as positive controls for membrane damage [62]. Microscopic analyses were carried out using an Olympus BX-61 microscope, equipped with a monochromatic OrcaFlash-2.8 camera (Hamamatsu, Japan), and the software CellSens Dimension Version 11 (Olympus).

Compound | MIC (MRSA (ATCC BAA44)) [µg/mL] | MIC (MRSA planktonic cells; Staphylococcus aureus, read-out: MIC Alone) [µg/mL] | MIC Combined (MRSA planktonic cells; checkerboard, in combination LCC + VAN) [µg/mL] | FICD (fractional inhibitory concentration for the associated drug) (MRSA planktonic cells; combination LCC + VAN) | MBIC50 (minimum biofilm inhibitory concentration) (MRSA biofilm) | percentage of cells with permeabilized membrane (stained with both fluorophores) [1] [%]
CN[C@H](CC(C)C)C(=O)N[C@H]1C(=O)N[C@@H](CC(N)=O)C(=O)N[C@H]2C(=O)N[C@H]3C(=O)N[C@H](C(=O)N[C@H](C(=O)O)c4cc(O)cc(O)c4-c4cc3ccc4O)[C@H](O)c3ccc(c(Cl)c3)Oc3cc2cc(c3O[C@@H]2O[C@H](CO)[C@@H](O)[C@H](O)[C@H]2O[C@H]2C[C@](C)(N)[C@H](O)[C@H](C)O2)Oc2ccc(cc2Cl)[C@H]1O [Vancomycin, vancomycin, reference compound] | 0.73 (≈ 0.504 µM) | 0.73 | 0.36 | 0.5 | 0.737 µg/mL and 0.7375 µg/mL | –
nisin (I[Dhb]AI[Dha]LC[Abu]PGCK[Abu]GALMGCNMK[Abu]A[Abu]CHCSIHV[Dha]K; thioether 8-11, 13-19, 23-26, 25-28, 3-7; UniProt P13068 24-57, looked up) [reference compound] | – | – | – | – | – | 95
